Measurements published in patent publication US5250539A, “Hexahydrobenzo[f]quinolinones” (priority 1991, dated 1993).

What follows are molecules tested against T1, 5α-Reductase (Homo sapiens, UniProt P18405) (assay: Inhibition of 5α-reductase in Hs68 human genital skin fibroblasts (conversion of labelled testosterone, TLC)). Conditions: 1.0 μM test compound; Hs68 cells; 12 μM testosterone; 4 h; read-out: % Inhibition.
T1 construct: host or cells: Hs68 human genital skin fibroblasts
T1 sequence (P18405 1-259): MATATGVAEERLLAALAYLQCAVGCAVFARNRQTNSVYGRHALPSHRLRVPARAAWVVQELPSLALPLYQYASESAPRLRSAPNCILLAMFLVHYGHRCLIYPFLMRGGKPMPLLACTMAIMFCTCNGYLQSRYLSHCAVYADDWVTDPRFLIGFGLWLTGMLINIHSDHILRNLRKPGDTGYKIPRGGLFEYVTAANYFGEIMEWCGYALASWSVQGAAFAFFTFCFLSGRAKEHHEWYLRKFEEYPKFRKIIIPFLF
Type: cell-based
Method: Cell Culture: 5α-Reductase activity was measured using Hs68 human genital skin fibroblasts which were originally purchased from the American Type Culture Collection (Rockville, Md.). The cells were grown in Dulbecco's Modified Eagle's Medium (DMEM) plus 10% stripped fetal bovine serum which was supplemented with amphotericin B (0.25 μg/ml) and gentamicin (25.0 μg/ml) (GIBCO, Grand Island, N.Y.). The serum was stripped of endogenous steroids by incubation with dextran-coated charcoal prior to its addition to the media. The cells were maintained at 37° C. in an atmosphere of 95% air, 5% CO2 and were passaged every 7-10 days by exposure to a trypsin-EDTA solution (0.025% trypsin, 0.265 mM EDTA). Prior to the assay the Hs68 cells were harvested and plated in Falcon 6-well plates (Becton Dickinson Labware, Lincoln Park, N.J.) at a density of 6×10^4 cells per well. The cells were allowed to grow for 4-5 days or until they reached approximately 80% confluence.
Assay Method I: The substrate was prepared by dissolving unlabeled testosterone (Sigma Chemical Co., St. Louis, Mo.) in absolute ethanol followed by the addition of [7-^3 H (N)]-testosterone (23.3 Ci/mmole, New England Nuclear, Boston, Mass.). The steroid solution was taken to dryness under a stream of nitrogen and then reconstituted in media.
Assay Method II: The substrate used for this method was [^14 C]-testosterone (50 mCi/mmol) (New England Nuclear, Boston, Mass.). An aliquot of the substrate was taken to dryness under a stream of nitrogen. After the addition of 30 μl of ethanol, the testosterone was brought up in an appropriate volume of media.
Sample Preparation: The test compounds were dissolved in absolute ethanol in order to achieve the desired concentration. Subsequent dilutions of the test compounds with media were performed by the Biomek 1000 Automated Laboratory Workstation (Beckman Instruments, Palo Alto, Calif.). The existing media in the sample wells was aspirated and replaced with fresh media. Test compound was then added to the wells followed by the addition of 0.5 ml of the substrate. The volume of the incubation mixture was maintained at 2.0 ml. The final substrate concentration was 12 μM. The concentration of the test compounds ranged from 0.001-15 μM. An additional three wells (background) containing media and substrate but no cells were also included to account for the non-enzymatic metabolism of the substrate. The plates were returned to the incubator and incubated for four hours.
At the end of the incubation the media was collected and transferred to an extraction tube containing 5 ml of tolueneethanol (9:1), to which has been added 40-250 μg each of unlabeled carrier steroids (estriol, estradiol, estrone, 5α-androstan-3α,17β-diol, 5α-androstan-3β,17β-diol, 4-androstene-3,17-dione, 5α-androstan-3,17-dione, testosterone, and 5α-dihydrotestosterone) (Steraloids, Inc. Wilton, N.H.). In the case of Assay Method I the extraction tube also contained 1,000 and 10,000 dpm of [4-^14 C]-dihydrotesterone (50-60 mCi/mmol) and [4-^14 C]-testosterone (50 mCi/mmol) (New England Nuclear, Boston, Mass.), respectively. The [^14 C]-steroids were included as recovery standards to quantify procedural losses. A small amount of NaCl was also added to the extraction tubes to prevent foaming. The samples were vortexed for approximately 30 seconds and then centrifuged for 10 minutes at 500×g. The organic phase was collected and the samples taken to dryness, redissolved in dichloromethane-methanol (9:1) and were analyzed by thin layer chromatography using one of the methods described below.

Structure (SMILES) | inhibition at 1 µM [%]
CN1C(=O)CCC2=C1CCc1ccccc12 [Example 7, 4-methyl-1,2,3,4,5,6,-hexahydrobenzo[f]quinolin-3-one] | 48
O=C1CCC2=C(CCc3cc(Cl)ccc32)N1 [Example 10, 8-chloro-1,2,3,4,5,6-hexahydrobenzo[f]quinolin-3-one] | 81
COc1ccc2c(c1)CCC1=C2CCC(=O)N1 [Example 11, 8-methoxy-1,2,3,4,5,6-hexahydrobenzo[f]quinolin-3-one] | 20
O=C1CCC2=C(CCc3cccc(Br)c32)N1 [Example 16, 10-bromo-1,2,3,4,5,6-hexahydrobenzo[f]quinolin-3-one] | 14
O=C1CCC2=C(CCc3cccc(Cl)c32)N1 [Example 17, 10-chloro-1,2,3,4,5,6-hexahydrobenzo[f]quinolin-3-one] | 0.3
O=C1CCC2=C(CCc3c(F)cccc32)N1 [Example 18, 7-fluoro-1,2,3,4,5,6-hexahydrobenzo[f]quinolin-3-one] | 36
CN1C(=O)CCC2=C1CCc1c(F)cccc12 [Example 19, 7-fluoro-4-methyl-1,2,3,4,5,6-hexahydrobenzo[f]quinolin-3-one] | 61
CN1C(=O)CCC2=C1CCc1ccc(F)cc12 [Example 21, 9-fluoro-4-methyl-1,2,3,4,5,6-hexahydrobenzo[f]quinolin-3-one] | 60
CN1C(=O)CCC2=C1CCc1cccc(F)c12 [Example 22, 10-fluoro-4-methyl-1,2,3,4,5,6-hexahydrobenzo[f]quinolin-3-one] | 35
O=C1CCC2=C(CCc3cc(F)ccc32)N1Cc1ccccc1 [Example 23, 8-fluoro-4-benzyl-1,2,3,4,5,6-hexahydrobenzo[f]quinolin-3-one] | 37
CCN1C(=O)CCC2=C1CCc1cc(F)ccc12 [Example 24, 8-fluoro-4-ethyl-1,2,3,4,5,6-hexahydrobenzo[f]quinolin-3-one] | 31
COc1ccc2c(c1)C1=C(CC2)NC(=O)CC1 [Example 26, 9-methoxy-1,2,3,4,5,6-hexahydrobenzo[f]quinolin-3-one] | 12
COc1cccc2c1C1=C(CC2)NC(=O)CC1 [Example 27, 10-methoxy-1,2,3,4,5,6-hexahydrobenzo[f]quinolin-3-one] | 0
COc1cc2c(cc1OC)C1=C(CC2)NC(=O)CC1 [Example 28, 8,9-dimethoxy-1,2,3,4,5,6-hexahydrobenzo[f]quinolin-3-one] | 33
Cc1cccc2c1C1=C(CC2)NC(=O)CC1 [Example 29, 10-methyl-1,2,3,4,5,6-hexahydrobenzo[f]quinolin-3-one] | 41

Same assay, conditions: Hs68

Structure (SMILES) | inhibition at 1 µM [%]
O=C1CCC2=C(CCc3cccc(F)c32)N1 [Example 20, 10-fluoro-1,2,3,4,5,6-hexahydrobenzo[f]quinolin-3-one] | 22
